3 compounds from patent US20220009920A1 (GB005, Inc., priority 2020, published 2022) can be followed below.

The structures appear in SMILES notation. Where two headings read alike, the source gives them in different places. Where only a bound is given, the exact number is not on record here.

Data set [1] addresses T1, BTK (Homo sapiens, UniProt Q06187).
T1 construct: purchased Cama
The data set can be described thus: Assay to determine activity against BTK. The class given is biochemical. As to conditions: 1 mM ATP, 2 nM BTK, 90 minutes at room temperature. The procedure, abridged: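 Recombinant BTK (2 nM) was assayed with 1.5 µM FL-peptide and 1 mM ATP in pH 7.5 HEPES buffer with MgCl2, DTT, BSA and EGTA, for 90 min at room temperature before an EDTA stop. Peptide conversion ratio was read by mobility-shift, and IC50 came from 11-point 3-fold dilution curves.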

For data set [2], the system named is BTK in RAMOS B cells. The data set can be described thus: Assay to determine BTK activity in RAMOS B cells (anti-IgM, FLIPR Calcium 6). The class given is cell-based. Conditions: anti-IgM EC80, calcium readout.
Data set [3] can be described thus: Plasma and total brain concentrations at 1 h post single oral administration to male Wistar Han rats. The class given is in vivo. Conditions: rat, 10 mg/kg oral gavage; for Kp at 1 h: brain/plasma, read-out: brain to plasma ratio. On the procedure:
The appropriate amount of test article was dissolved 10% dimethylacetamide (DMA)/90% (20% hydroxypropyl-β-cyclodextrin (HP-B-CD) w/v in water to obtain a final concentration of 1 mg/mL for oral dosing. Sonication, vortex, and homogenization was used as needed. Three male Wistar Han rats aged 6-8 weeks (200-300 grams) were dosed by oral gavage 10 mg/kg solution of the test article.
At 1 h, blood and whole brains were collected. Blood was collected via cardiac puncture into tubes containing potassium EDTA and kept on ice until plasma collection. Plasma was obtained via centrifugation at 4000×g for five minutes at 4° C. Following exsanguination, animals were transcardially perfused with approximately 20 mL of saline, and brains were collected and immediately frozen. Plasma and brains were at −75±15° C. until analysis.
The desired serial concentrations of working solutions were achieved by diluting stock solution of analyte with 50% acetonitrile in water solution. 5 μL of working solutions (2, 5, 10, 50, 100, 500, 1000, 5000, 10000 ng/mL) were added to 50 μL of the male blank Wistar Han rats plasma, brain homogenate to achieve calibration standards of 0.2˜1000 ng/mL (0.2, 0.5, 1, 5, 10, 50, 100, 500, 1000 ng/mL) in a total volume of 55 μL. Four quality control samples at 0.5 ng/mL, 1 ng/mL, 50 ng/mL and 800 ng/mL for plasma, brain homogenate were prepared independently of those used for the calibration curves. These QC samples were prepared on the day of analysis in the same way as calibration standards.
55 μL of standards, 55 μL of QC samples and 55 μL of unknown samples (50 μL of plasma, brain homogenate with 5 μL of blank solution) were added to 200 μL of acetonitrile containing IS mixture for precipitating protein respectively. Then the samples were vortexed for 30 s. After centrifugation at 4° C., 4700 rpm for 15 min, the supernatant was diluted 3 times with water. 10 μL of diluted supernatant was injected into the LC/MS/MS system for quantitative analysis.

Data set [4] relates to 288 kinases. The data set can be described thus: Large panel kinase profiling, overall selectivity. It is filed as biochemical. As to conditions: 1 μM test article, 1 mM ATP. The method, then: (§1) Large panel kinase profiling was performed at AssayQuant Technologies, Inc. 260 Cedar Hill Street, Marlborough, Mass. 01752 using the PhosphoSens® CSox-Sensor platform using 1 μM test article concentration and 1 mM ATP concentration (www.assayquant.com). Reactions were run in Corning, half-area 96-well, white flat round bottom polystyrene NBS microplates (Cat. #3642) after sealing using optically-clear adhesive film (TopSealA-Plus plate seal, PerkinElmer), applied with either a roller or a paddle to eliminate evaporation and resulting drift. The standard total reaction volume was 50 μL. All experiments were ran at 30° C. to control for fluctuations in ambient temperature. Plates were read from the top in kinetic mode (readings taken every 1 min), monitoring fluorescence intensity with filters using Ex 360 nm and Em 485 nm and a band width of 40 and 20 nm, respectively, and a gain of 80. Data analysis was performed using either Graphpad Prism or Gene Data Screener software.

In data set [5] the target is T2, NTRK2/TRKB (Homo sapiens, UniProt Q16620).
T2 construct: AssayQuant Technologies, Inc. (assay service)
The data set can be described thus: Large panel kinase profiling. It is filed as biochemical. As to conditions: 1 μM test article, 1 mM ATP. On the procedure: as §1

Setting [6] is: plasma, read-out: Mean [plasma].

T2 sequence (Q16620 32-822): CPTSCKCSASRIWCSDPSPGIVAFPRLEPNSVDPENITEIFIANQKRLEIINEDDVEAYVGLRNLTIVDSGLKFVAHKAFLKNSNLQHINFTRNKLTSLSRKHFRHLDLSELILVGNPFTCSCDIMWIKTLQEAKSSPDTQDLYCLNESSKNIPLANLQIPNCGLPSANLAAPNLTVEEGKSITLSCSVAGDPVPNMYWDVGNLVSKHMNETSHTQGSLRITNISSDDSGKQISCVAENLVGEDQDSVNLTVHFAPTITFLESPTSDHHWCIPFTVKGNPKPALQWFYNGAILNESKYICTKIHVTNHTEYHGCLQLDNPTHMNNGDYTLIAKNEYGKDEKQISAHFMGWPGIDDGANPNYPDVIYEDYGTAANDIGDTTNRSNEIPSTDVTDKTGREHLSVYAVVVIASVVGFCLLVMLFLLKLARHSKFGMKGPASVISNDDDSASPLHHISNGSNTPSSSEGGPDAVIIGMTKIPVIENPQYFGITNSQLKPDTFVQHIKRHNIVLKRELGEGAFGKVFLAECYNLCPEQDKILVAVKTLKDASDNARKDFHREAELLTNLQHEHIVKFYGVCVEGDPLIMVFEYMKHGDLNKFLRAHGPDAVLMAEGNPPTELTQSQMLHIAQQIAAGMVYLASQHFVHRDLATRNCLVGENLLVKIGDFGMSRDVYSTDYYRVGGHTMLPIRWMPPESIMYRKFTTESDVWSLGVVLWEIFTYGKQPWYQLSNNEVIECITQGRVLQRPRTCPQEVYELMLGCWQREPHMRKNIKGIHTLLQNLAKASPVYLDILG
T1 sequence (Q06187 whole entry): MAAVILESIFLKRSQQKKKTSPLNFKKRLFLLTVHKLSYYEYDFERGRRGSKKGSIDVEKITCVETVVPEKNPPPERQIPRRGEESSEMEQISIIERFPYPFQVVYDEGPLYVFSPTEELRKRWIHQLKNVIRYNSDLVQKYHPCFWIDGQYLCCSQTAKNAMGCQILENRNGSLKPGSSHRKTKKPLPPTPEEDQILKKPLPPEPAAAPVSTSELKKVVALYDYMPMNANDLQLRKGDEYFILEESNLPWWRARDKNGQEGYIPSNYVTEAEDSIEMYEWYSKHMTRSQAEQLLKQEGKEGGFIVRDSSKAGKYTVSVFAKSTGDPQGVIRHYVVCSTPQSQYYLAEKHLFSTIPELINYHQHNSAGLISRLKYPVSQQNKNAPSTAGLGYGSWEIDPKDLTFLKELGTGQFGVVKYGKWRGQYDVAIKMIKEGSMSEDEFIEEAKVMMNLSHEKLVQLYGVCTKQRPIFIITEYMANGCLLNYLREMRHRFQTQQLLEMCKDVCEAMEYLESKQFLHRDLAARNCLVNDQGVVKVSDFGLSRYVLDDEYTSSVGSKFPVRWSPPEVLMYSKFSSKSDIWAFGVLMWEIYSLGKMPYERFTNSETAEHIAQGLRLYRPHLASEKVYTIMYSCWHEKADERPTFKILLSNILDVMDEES

`C=CC(=O)N1CCCC(c2c(F)cc(C(N)=O)c3[nH]c4c(c23)CCCCC4)C1` (single isomer, unassigned) [Compound 5-6]: the half-maximal inhibitory concentration (IC50) in data set [1] and in data set [2] was less than 10 nM in each case. Also, the concentration at 1 h in data set [3] (brain, read-out: Mean [brain]) worked out at 84 ng/mL; in data set [3] (setting [6]), 196 ng/mL. The Kp at 1 h in data set [3] was 0.43. Moreover, the “selectivity in the large panel kinase screen” value (“selectivity” below) in data set [4] is “highly selective”. In addition, in data set [5], the inhibition at 1 µM is -20.9%.
For the compound `C=CC(=O)N1CCC[C@@H](c2c(F)cc(C(N)=O)c3[nH]c4c(c23)CC2(CC4)CC2)C1` [Compound 6-2, (S)-5-(1-acryloylpiperidin-3-yl)-6-fluoro-1,2,4,9-tetrahydrospiro[carbazole-3,1′-cyclopropane]-8-carboxamide], the IC50 in data set [1] is less than 10 nM; in data set [2] (Homo sapiens, Ramos), less than 10 nM. Also, the concentration at 1 h was found to be 108 ng/mL in data set [3] (brain, read-out: Mean [brain]) and 395 ng/mL in data set [3] (setting [6]). For the same compound, in data set [3], the Kp at 1 h was 0.28. Further, the “selectivity” value in data set [4] is on record as “highly selective”. The inhibition at 1 µM in data set [5] is 13.1%.
For the compound `C=CC(=O)N1CCC[C@@H](c2c(F)cc(C(N)=O)c3[nH]c4c(c23)CCC4)C1` [Compound 10-2, (S)-8-(1-acryloylpiperidin-3-yl)-7-fluoro-1,2,3,4-tetrahydrocyclo-penta[b]indole-5-carboxamide], the half-inhibitory concentration (IC50) in data set [1] is less than 10 nM; in data set [2] (Homo sapiens, Ramos) it was less than 10 nM. Also, the concentration at 1 h in data set [3] (brain, read-out: Mean [brain]) worked out at 116 ng/mL; in data set [3] (setting [6]), 421 ng/mL. In addition, the Kp at 1 h in data set [3] is 0.29. For the same compound, the “selectivity” value in data set [4] is recorded as “highly selective”. Moreover, the inhibition at 1 µM in data set [5] was 19.7%.
